Results published in patent US20240067632A1, “WEE1 Degrading Compounds and Uses Thereof” (Bristol-Myers Squibb Company, priority 2022, published 2024).

Molecular target: T1, WEE1 (Homo sapiens, UniProt P30291+Q96SW2)
T1 construct: C-terminal ePL-tagged (DiscoverX, Fremont, CA) full-length WEE1 expression construct; expressed in transfected cells; host or cells: LentiX-HEK293T (Invitrogen), lentiviral transduction; co-expressing GSPT1-GN (G576N, lacking the first 158 amino acids)
Assay: WEE1-ePL degradation assay (LentiX-WEE1-ePL-GSPT1-ND cells, InCELL Hunter luminescence, 4 h)
Assay type: cell-based
Conditions: 293T-LentiX WEE1-ePL cells; for DC50: read-out: 293T-LentiX WEE1-ePL Degradation 4 hr (EC50)
Experimental: To generate LentiX-WEE1-ePL-GSPT1-ND cells for the WEE1 degradation assay, LentiX-HEK293T (Invitrogen) were transduced by lentivirus with a C-terminal ePL-tagged (DiscoverX, Fremont, CA) full-length WEE1 expression construct. […] Cells were selected and maintained in complete DMEM media (DMEM, 10% Heat Inactivated FBS, 400 μg/mL Geneticin, and 1 μg/mL puromycin at 37 C and 5% CO2). Cells were passaged every 3-4 days by reseeding 1×10^6 cells in a T150 flask.
Cells were dispensed into 384-well white plates (Corning #3570, NY) that were pre-spotted with compounds using an acoustic dispenser (Echo acoustic transfer system, Beckman Coulter Life Sciences, Carlsbad, CA) as a 10-point dose-response curve with a 3-fold dilution starting at either 1 uM or 10 uM and including a DMSO control. Twenty-five microliters of media containing 2500 cells for LentiX-oeWEE1-ePL was dispensed per well. Assay plates were incubated at 37° C. with 5% CO2 for four hours (WEE1) After incubation, 25 μL of the InCELL Hunter™ Detection Reagent Working Solution (DiscoverX, Fremont, CA) was added to each well and incubated at room temperature for 30 minutes protected from light. After 30 minutes, luminescence was read on a PHERAstar luminometer (Cary, NC).
To determine the half-maximal effective concentration (EC50) values for WEE1-ePL degradation, a four parameter logistic model was used: (Sigmoidal Dose-Response Model) (FIT=(A+((B−A)/1+((C/x)^D)))) where C is the inflection point (EC50), D is the Hill slope, and A and B are the low and high limits of the fit respectively). The lower limit of the fit (value A) is referred to as Ymin. […] The maximum limit constraint, Ymax, is similarly derived using DMSO control. The curves were processed and evaluated using Activity Base (IDBS, Alameda, CA).

[1] = lower limit of the fit (0 = luciferase inhibitor, Ymax = DMSO control)
[2] = lower limit of the fit (Ymin=0 luciferase inhibitor, Ymax DMSO control)

| 293T-LentiX WEE1-ePL Degradation 4 hr (Ymin) [1] | DC50 | 293T-LentiX WEE1-ePL Degradation 4 hr (Ymin) [2] | Structure (SMILES) |
| --- | --- | --- | --- |
| 53.34 | 174 nM |  | O=C1CCC(N2Cc3cc(O[C@H]4CCN(Cc5cccc6nccnc56)C4)ccc3C2=O)C(=O)N1 (stereo partly drawn) [3-(1-oxo-5-{[(3S)-1-[(quinoxalin-5-yl)methyl]pyrrolidin-3-yl]oxy}-2,3-dihydro-1H-isoindol-2-yl)piperidine-2,6-dione] |
| 89.42 |  |  | O=C1CCC(N2Cc3ccc(O[C@@H]4CCN(Cc5cnc6ccccc6c5)C4)cc3C2=O)C(=O)N1 (stereo partly drawn) [3-(1-oxo-6-{[(3R)-1-[(quinolin-3-yl)methyl]pyrrolidin-3-yl]oxy}-2,3-dihydro-1H-isoindol-2-yl)piperidine-2,6-dione] |
|  |  | 94.2 | Cc1nc(C)c(CN2CC[C@@H](Oc3ccc4c(c3)CN(C3CCC(=O)NC3=O)C4=O)C2)s1 (stereo partly drawn) [3-(5-{[(3R)-1-[(2,4-dimethyl-1,3-thiazol-5-yl)methyl]pyrrolidin-3-yl]oxy}-1-oxo-2,3-dihydro-1H-isoindol-2-yl)piperidine-2,6-dione] |
|  | 2.17 nM | 26.54 | COC[C@@H]1CCC[C@@H](c2ccc3cc(CN4CC[C@H](Oc5ccc6c(c5)CN(C5CCC(=O)NC5=O)C6=O)C4)ccc3n2)C1 (stereo partly drawn) [3-(5-{[(3S)-1-({2-[(1R,3R)-3-(methoxymethyl)cyclohexyl]quinolin-6-yl}methyl)pyrrolidin-3-yl]oxy}-1-oxo-2,3-dihydro-1H-isoindol-2-yl)piperidine-2,6-dione] |
|  | 1.82 nM | 26.32 | COC[C@H]1CCC[C@@H](c2ccc3cc(CN4CC[C@H](Oc5ccc6c(c5)CN(C5CCC(=O)NC5=O)C6=O)C4)ccc3n2)C1 (stereo partly drawn) [3-(5-{[(3S)-1-({2-[(1R,3S)-3-(methoxymethyl)cyclohexyl]quinolin-6-yl}methyl)pyrrolidin-3-yl]oxy}-1-oxo-2,3-dihydro-1H-isoindol-2-yl)piperidine-2,6-dione] |
| 92.17 |  |  | Nc1cccc(COc2ccccc2CN2CC[C@H](Oc3ccc4c(c3)CN(C3CCC(=O)NC3=O)C4=O)C2)c1 (stereo partly drawn) [3-(5-{[(3S)-1-({2-[(3-aminophenyl)methoxy]phenyl}methyl)pyrrolidin-3-yl]oxy}-1-oxo-2,3-dihydro-1H-isoindol-2-yl)piperidine-2,6-dione] |
| 78.15 | 818 nM |  | Nc1cccc(COc2cccc(CN3CC[C@H](Oc4ccc5c(c4)CN(C4CCC(=O)NC4=O)C5=O)C3)c2)c1 (stereo partly drawn) [3-(5-{[(3S)-1-({3-[(3-aminophenyl)methoxy]phenyl}methyl)pyrrolidin-3-yl]oxy}-1-oxo-2,3-dihydro-1H-isoindol-2-yl)piperidine-2,6-dione] |
| 57.26 | 183 nM |  | O=C1CCC(N2Cc3cc(O[C@H]4CCN(Cc5cccc6nccn56)C4)ccc3C2=O)C(=O)N1 (stereo partly drawn) [3-(5-{[(3S)-1-({imidazo[1,2-a]pyridin-5-yl}methyl)pyrrolidin-3-yl]oxy}-1-oxo-2,3-dihydro-1H-isoindol-2-yl)piperidine-2,6-dione] |
| 42.7 | 109 nM |  | O=C1CCC(N2Cc3cc(O[C@H]4CCN(Cc5ccc6cnccc6n5)C4)ccc3C2=O)C(=O)N1 (stereo partly drawn) [3-(5-{[(3S)-1-[(1,6-naphthyridin-2-yl)methyl]pyrrolidin-3-yl]oxy}-1-oxo-2,3-dihydro-1H-isoindol-2-yl)piperidine-2,6-dione] |
| 96.5 |  |  | O=C1CCC(N2Cc3cc(O[C@H]4CCN(Cc5ccnc6ncccc56)C4)ccc3C2=O)C(=O)N1 (stereo partly drawn) [3-(5-{[(3S)-1-[(1,8-naphthyridin-4-yl)methyl]pyrrolidin-3-yl]oxy}-1-oxo-2,3-dihydro-1H-isoindol-2-yl)piperidine-2,6-dione] |
| 43.42 | 54.5 nM |  | Cc1nccc(CN2CC[C@H](Oc3ccc4c(c3)CN(C3CCC(=O)NC3=O)C4=O)C2)c1C (stereo partly drawn) [3-(5-{[(3S)-1-[(2,3-dimethylpyridin-4-yl)methyl]pyrrolidin-3-yl]oxy}-1-oxo-2,3-dihydro-1H-isoindol-2-yl)piperidine-2,6-dione] |
| 45.09 | 18.3 nM |  | COc1nc2ccccc2cc1CN1CC[C@H](Oc2ccc3c(c2)CN(C2CCC(=O)NC2=O)C3=O)C1 (stereo partly drawn) [3-(5-{[(3S)-1-[(2-methoxyquinolin-3-yl)methyl]pyrrolidin-3-yl]oxy}-1-oxo-2,3-dihydro-1H-isoindol-2-yl)piperidine-2,6-dione] |
| 89.91 |  |  | NCc1ccccc1COc1ccccc1CN1CC[C@H](Oc2ccc3c(c2)CN(C2CCC(=O)NC2=O)C3=O)C1 (stereo partly drawn) [3-(5-{[(3S)-1-[(2-{[2-(aminomethyl)phenyl]methoxy}phenyl)methyl]pyrrolidin-3-yl]oxy}-1-oxo-2,3-dihydro-1H-isoindol-2-yl)piperidine-2,6-dione] |
| 87.63 |  |  | NCc1cccc(COc2ccccc2CN2CC[C@H](Oc3ccc4c(c3)CN(C3CCC(=O)NC3=O)C4=O)C2)c1 (stereo partly drawn) [3-(5-{[(3S)-1-[(2-{[3-(aminomethyl)phenyl]methoxy}phenyl)methyl]pyrrolidin-3-yl]oxy}-1-oxo-2,3-dihydro-1H-isoindol-2-yl)piperidine-2,6-dione] |
| 88.71 |  |  | NCc1ccc(COc2ccccc2CN2CC[C@H](Oc3ccc4c(c3)CN(C3CCC(=O)NC3=O)C4=O)C2)cc1 (stereo partly drawn) [3-(5-{[(3S)-1-[(2-{[4-(aminomethyl)phenyl]methoxy}phenyl)methyl]pyrrolidin-3-yl]oxy}-1-oxo-2,3-dihydro-1H-isoindol-2-yl)piperidine-2,6-dione] |
| 74.31 |  |  | NCc1ccccc1COc1cccc(CN2CC[C@H](Oc3ccc4c(c3)CN(C3CCC(=O)NC3=O)C4=O)C2)c1 (stereo partly drawn) [3-(5-{[(3S)-1-[(3-{[2-(aminomethyl)phenyl]methoxy}phenyl)methyl]pyrrolidin-3-yl]oxy}-1-oxo-2,3-dihydro-1H-isoindol-2-yl)piperidine-2,6-dione] |
| 81.05 |  |  | NCc1cccc(COc2cccc(CN3CC[C@H](Oc4ccc5c(c4)CN(C4CCC(=O)NC4=O)C5=O)C3)c2)c1 (stereo partly drawn) [3-(5-{[(3S)-1-[(3-{[3-(aminomethyl)phenyl]methoxy}phenyl)methyl]pyrrolidin-3-yl]oxy}-1-oxo-2,3-dihydro-1H-isoindol-2-yl)piperidine-2,6-dione] |
| 87 |  |  | NCc1ccc(COc2cccc(CN3CC[C@H](Oc4ccc5c(c4)CN(C4CCC(=O)NC4=O)C5=O)C3)c2)cc1 (stereo partly drawn) [3-(5-{[(3S)-1-[(3-{[4-(aminomethyl)phenyl]methoxy}phenyl)methyl]pyrrolidin-3-yl]oxy}-1-oxo-2,3-dihydro-1H-isoindol-2-yl)piperidine-2,6-dione] |
|  |  | 80.98 | O=C1CCC(N2Cc3cc(O[C@H]4CCN(Cc5ccc6nc(C7CCOCC7)ccc6c5)C4=O)ccc3C2=O)C(=O)N1 (stereo partly drawn) [3-(5-{[(3S)-1-{[2-(oxan-4-yl)quinolin-6-yl]methyl}-2-oxopyrrolidin-3-yl]oxy}-1-oxo-2,3-dihydro-1H-isoindol-2-yl)piperidine-2,6-dione] |
| 75.96 | 196 nM |  | O=C1CCC(N2Cc3cc(O[C@H]4CCN(Cc5cccc(OC(F)F)c5)C4)ccc3C2=O)C(=O)N1 (stereo partly drawn) [3-(5-{[(3S)-1-{[3-(difluoromethoxy)phenyl]methyl}pyrrolidin-3-yl]oxy}-1-oxo-2,3-dihydro-1H-isoindol-2-yl)piperidine-2,6-dione] |
| 80.095 |  |  | O=C1CCC(N2Cc3ccc(O[C@H]4CCN(Cc5ccc6cnccc6c5)C4)cc3C2=O)C(=O)N1 (stereo partly drawn) [3-(6-{[(3S)-1-[(isoquinolin-6-yl)methyl]pyrrolidin-3-yl]oxy}-1-oxo-2,3-dihydro-1H-isoindol-2-yl)piperidine-2,6-dione] |
|  | 2.8 nM | 28.82 | O=C1CC[C@H](N2Cc3cc(O[C@H]4CCN(Cc5ccc6nc(C7CCOCC7)ccc6c5Cl)C4)ccc3C2=O)C(=O)N1 [(3S)-3-(5-{[(3S)-1-{[5-chloro-2-(oxan-4-yl)quinolin-6-yl]methyl}pyrrolidin-3-yl]oxy}-1-oxo-2,3-dihydro-1H-isoindol-2-yl)piperidine-2,6-dione] |
|  | 3.27 nM | 32.24 | O=C1CC[C@H](N2Cc3cc(O[C@H]4CCN(Cc5ccc6nc(N7CCOCC7)ncc6c5F)C4)ccc3C2=O)C(=O)N1 [(3S)-3-(5-{[(3S)-1-{[5-fluoro-2-(morpholin-4-yl)quinazolin-6-yl]methyl}pyrrolidin-3-yl]oxy}-1-oxo-2,3-dihydro-1H-isoindol-2-yl)piperidine-2,6-dione] |
